Data taken from the supplement of paper PMC5908809.

Assays:
[1] = tested on: normal NK cells expanded with K562-aAPC; assay: drug sensitivity score (DSS) (DSS units); higher = more sensitive; extreme values may be limits of the assay; settings: 72 h; IL-2 2.5 ng/mL
Protocol: (§1)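 Drug sensitivity and resistance testing on K562-aAPC-expanded normal NK cells: 5 concentrations (10-fold steps over a 10,000-fold range), 72 h at 37 °C, viability by CellTiter-Glo normalised to DMSO and benzethonium chloride controls; DSS from the fitted curve.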

DERL-7 (IL-2 2.5 ng/mL) [2] = assay: percent inhibition of viability; higher = more inhibition; settings: 72 h
[3] = tested on: normal primary NK cells, pool 1 (3 donors), resting (IL-2 0 ng/mL); assay: as above; settings: 72 h
KHYG-1 (IL-2 2.5 ng/mL) [4] = assay: as above; settings: 72 h
[5] = tested on: normal primary NK cells, pool 3 (3 donors) (IL-2 2.5 ng/mL); assay: as above; settings: 72 h
NKL (IL-2 2.5 ng/mL) [6] = assay: as above; settings: 72 h
SNK-6 (IL-2 2.5 ng/mL) [7] = assay: as above; settings: 72 h
NK-92 (IL-2 2.5 ng/mL) [8] = assay: as above; settings: 72 h
IMC-1 (IL-2 20 ng/mL) [9] = assay: as above; settings: 72 h
[10] = tested on: normal primary NK cells, pool 2 (3 donors) (IL-2 2.5 ng/mL); assay: as above; settings: 72 h
NK-YS (IL-2 2.5 ng/mL) [11] = assay: as above; settings: 72 h
[12] = tested on: normal primary NK cells, pool 1 (3 donors) (IL-2 2.5 ng/mL); assay: as above; settings: 72 h
YT (IL-2 2.5 ng/mL) [13] = assay: as above; settings: 72 h
KAI3 (IL-2 2.5 ng/mL) [14] = assay: as above; settings: 72 h
DERL-7 (IL-2 2.5 ng/mL) [15] = assay: drug sensitivity score (DSS) (DSS units); higher = more sensitive; extreme values may be limits of the assay; settings: 72 h
[16] = tested on: normal primary NK cells, pool 1 (3 donors), resting (IL-2 0 ng/mL); assay: as above; settings: 72 h
KHYG-1 (IL-2 2.5 ng/mL) [17] = assay: as above; settings: 72 h
[18] = tested on: normal primary NK cells, pool 3 (3 donors) (IL-2 2.5 ng/mL); assay: as above; settings: 72 h
NKL (IL-2 2.5 ng/mL) [19] = assay: as above; settings: 72 h
SNK-6 (IL-2 2.5 ng/mL) [20] = assay: as above; settings: 72 h
NK-92 (IL-2 2.5 ng/mL) [21] = assay: as above; settings: 72 h
IMC-1 (IL-2 20 ng/mL) [22] = assay: as above; settings: 72 h
[23] = tested on: normal primary NK cells, pool 2 (3 donors) (IL-2 2.5 ng/mL); assay: as above; settings: 72 h
NK-YS (IL-2 2.5 ng/mL) [24] = assay: as above; settings: 72 h
[25] = tested on: normal primary NK cells, pool 1 (3 donors) (IL-2 2.5 ng/mL); assay: as above; settings: 72 h
YT (IL-2 2.5 ng/mL) [26] = assay: as above; settings: 72 h
KAI3 (IL-2 2.5 ng/mL) [27] = assay: as above; settings: 72 h
[28] = tested on: normal NK cells expanded with K562-aAPC; assay: percent inhibition of viability; higher = more inhibition; settings: 72 h, IL-2 2.5 ng/mL
Protocol: as §1

Cc1nc(C(=O)NCC(=O)O)c(O)c2ccc(Oc3ccccc3)cc12 [FG-4592] (max concentration tested 10000 nM)
Settings	drug sensitivity score
DERL-7 (IL-2 2.5 ng/mL) [15]	0
IMC-1 (IL-2 20 ng/mL) [22]	0.7
KAI3 (IL-2 2.5 ng/mL) [27]	0.42
KHYG-1 (IL-2 2.5 ng/mL) [17]	1
NK-92 (IL-2 2.5 ng/mL) [21]	1.18
NK-YS (IL-2 2.5 ng/mL) [24]	1.72
NKL (IL-2 2.5 ng/mL) [19]	0.76
SNK-6 (IL-2 2.5 ng/mL) [20]	1.59
YT (IL-2 2.5 ng/mL) [26]	0
[1]	0.37
[16]	0
[18]	0
[23]	0
[25]	0

percent inhibition of viability [%]
Settings	1 nM	10 nM	100 nM	1000 nM	10000 nM
DERL-7 (IL-2 2.5 ng/mL) [2]	-0.63	3.45	4.49	0.12	6.99
IMC-1 (IL-2 20 ng/mL) [9]	-3.51	-1.09	1.25	-1.57	22.9
KAI3 (IL-2 2.5 ng/mL) [14]	1.56	-2.99	1.6	-0.39	17.9
KHYG-1 (IL-2 2.5 ng/mL) [4]	0.18	-1.43	2.3	3.63	19.2
NK-92 (IL-2 2.5 ng/mL) [8]	-0.86	-2.06	10.9	12.5	8.29
NK-YS (IL-2 2.5 ng/mL) [11]	-2.71	-1.91	3.2	3.83	27.3
NKL (IL-2 2.5 ng/mL) [6]	-14	-13	-11.3	-0.19	22.6
SNK-6 (IL-2 2.5 ng/mL) [7]	3.91	-11.4	5.11	2.73	28
YT (IL-2 2.5 ng/mL) [13]	1.14	-2.12	-1.6	-8.84	8.38
[3]	5.05	-14.3	2.92	-12.2	-4.7
[5]	-2.12	-3.88	-1.26	5.12	5.24
[10]	-11.8	-5.39	-6.37	1.43	10.4
[12]	0.46	1.21	-8.95	-4.43	-4.71
[28]	-0.43	-0.13	-0.05	6.19	12.6

C[C@]12C=CC(=O)C=C1CC[C@@H]1[C@@H]2C(=O)C[C@@]2(C)[C@H]1CC[C@]2(O)C(=O)CO [Prednisone] (max concentration tested 10000 nM)
Settings	drug sensitivity score
DERL-7 (IL-2 2.5 ng/mL) [15]	0
IMC-1 (IL-2 20 ng/mL) [22]	0.5
KAI3 (IL-2 2.5 ng/mL) [27]	0.51
KHYG-1 (IL-2 2.5 ng/mL) [17]	0.05
NK-92 (IL-2 2.5 ng/mL) [21]	0.06
NK-YS (IL-2 2.5 ng/mL) [24]	0.36
NKL (IL-2 2.5 ng/mL) [19]	0.06
SNK-6 (IL-2 2.5 ng/mL) [20]	2.13
YT (IL-2 2.5 ng/mL) [26]	8.17
[1]	1.61
[16]	0.01
[18]	0
[23]	0
[25]	0

percent inhibition of viability [%]
Settings	1 nM	10 nM	100 nM	1000 nM	10000 nM
DERL-7 (IL-2 2.5 ng/mL) [2]	-1.82	-3.2	-10.6	1.18	-9
IMC-1 (IL-2 20 ng/mL) [9]	0.28	-0.37	3.06	4.05	15.4
KAI3 (IL-2 2.5 ng/mL) [14]	-0.89	-0.49	8.97	-3.86	21.4
KHYG-1 (IL-2 2.5 ng/mL) [4]	-2.3	-2.14	4.01	1.48	11.2
NK-92 (IL-2 2.5 ng/mL) [8]	-5.87	-0.1	11.4	-3.86	13.6
NK-YS (IL-2 2.5 ng/mL) [11]	1.7	1.75	7.19	1.77	14.5
NKL (IL-2 2.5 ng/mL) [6]	-9.04	4.61	-4.53	4.17	10.7
SNK-6 (IL-2 2.5 ng/mL) [7]	-5.48	15	3.96	19.8	15
YT (IL-2 2.5 ng/mL) [13]	1.47	5.85	29.5	18.9	32.6
[3]	11.6	-5.07	6.95	-4.28	11.9
[5]	-8.77	-7.64	-1.51	-4.94	0.45
[10]	-7.97	-0.38	-4.79	-8.7	-1.49
[12]	4.02	-6.96	4.16	-9.18	9.23
[28]	-4.43	-1.43	-0.64	6.95	22
